Legend:
Assay type in all cases: physicochemical
PGL-3 condensates = molecular target: T1, PGL-3 condensates (Caenorhabditis elegans, UniProt G5EBV6); test: Fluorescence imaging of dye partitioning in PGL-3 condensates (I-in, I-out); conditions: for Ratio of intensity inside:outside PGL-3 Condensates Day 1 / Ratio of intensity inside:outside PGL-3 Condensates Day 2 / Ratio of intensity inside:outside PGL-3 Condensates Average: I-in:I-out; for Ratio of intensity inside:outside PGL-3 Condensates Day 1 / Ratio of intensity inside:outside PGL-3 Condensates Day 2 / Ratio of intensity inside:outside PGL-3 Condensates Average / Intensity Inside with Dye Average / Intensity Inside with Dye 1 / Intensity Inside with Dye 2 / Intensity Inside with Dye 3 / Intensity Outside with Dye Average / Intensity Outside with Dye 1 / Intensity Outside with Dye 2 / Intensity Outside with Dye 3: 10 μM dye; for Ratio of intensity inside:outside PGL-3 Condensates Average: average of two days; for Intensity Inside with Dye Average / Intensity Inside with Dye 1 / Intensity Inside with Dye 2 / Intensity Inside with Dye 3 / Intensity Inside Dye-No Dye: inside PGL-3 condensate; for Intensity Inside with Dye Average / Intensity Inside with Dye 1 / Intensity Inside with Dye 2 / Intensity Inside with Dye 3 / Intensity Outside with Dye Average / Intensity Outside with Dye 1 / Intensity Outside with Dye 2 / Intensity Outside with Dye 3: 5 μM protein; for Intensity Inside with Dye Average / Intensity Outside with Dye Average: average of three images; for Intensity Inside with Dye Average / Intensity Inside with Dye 1 / Intensity Inside with Dye 2 / Intensity Inside with Dye 3 / Intensity Inside Dye-No Dye / Intensity Outside with Dye Average / Intensity Outside with Dye 1 / Intensity Outside with Dye 2 / Intensity Outside with Dye 3 / Intensity Outside (Dye-No Dye): one day of experiments; for Intensity Inside with Dye 1 / Intensity Outside with Dye 1: image 1; for Intensity Inside with Dye 2 / Intensity Outside with Dye 2: image 2; for Intensity Inside with Dye 3 / Intensity Outside with Dye 3: image 3; for Intensity Inside Dye-No Dye / Intensity Outside (Dye-No Dye): background corrected; for Intensity Outside with Dye Average / Intensity Outside with Dye 1 / Intensity Outside with Dye 2 / Intensity Outside with Dye 3 / Intensity Outside (Dye-No Dye): outside PGL-3 condensate
T1 sequence (G5EBV6 1-693): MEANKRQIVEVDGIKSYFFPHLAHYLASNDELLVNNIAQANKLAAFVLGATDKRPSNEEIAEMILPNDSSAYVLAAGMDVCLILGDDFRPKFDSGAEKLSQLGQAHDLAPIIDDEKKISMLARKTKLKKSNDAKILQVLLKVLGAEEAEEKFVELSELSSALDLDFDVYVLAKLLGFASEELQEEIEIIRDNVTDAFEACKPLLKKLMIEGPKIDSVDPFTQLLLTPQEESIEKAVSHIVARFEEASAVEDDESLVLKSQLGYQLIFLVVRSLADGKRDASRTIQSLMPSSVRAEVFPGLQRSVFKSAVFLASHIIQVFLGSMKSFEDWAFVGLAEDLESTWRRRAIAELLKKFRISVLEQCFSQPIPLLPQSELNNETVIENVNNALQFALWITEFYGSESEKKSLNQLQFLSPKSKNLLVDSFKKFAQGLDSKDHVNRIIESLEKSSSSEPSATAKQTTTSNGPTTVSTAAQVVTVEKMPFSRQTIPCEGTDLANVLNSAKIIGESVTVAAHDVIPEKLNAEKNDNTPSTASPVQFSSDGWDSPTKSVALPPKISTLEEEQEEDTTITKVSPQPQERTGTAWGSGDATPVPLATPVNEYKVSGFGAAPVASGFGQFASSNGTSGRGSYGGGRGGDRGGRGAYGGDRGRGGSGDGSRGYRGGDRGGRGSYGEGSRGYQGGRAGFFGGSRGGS
Protocol: (§1) All dye-stocks were stored as 1 mM solutions in 100% DMSO. The dyes were dissolved in dilution buffer (DB: 14.7 mM Tris, pH 7.25, 1 mM DTT) to yield 11.765 μM dye in 1.1765 DMSO. 17 μl of dye was distributed in a 384 well non-binding plate (Greiner).
(§2) Either SNAP-tagged FUS protein or tag-free PGL-3 protein was thawed at room temperature for at least 10 min, and the buffer was exchanged to partitioning buffer (PB: 50 mM Tris pH 7.25, 500 mM KCl, 5% Glycerol, and 1 mM DTT). The protein was then diluted to 33.3 μM in PB. 3 μl of protein solution were added to the 384 well plate to initiate phase separation, yielding 20 μl of 5 μM protein and 10 μM dye in 75 mM KCl, 0.75% Glycerol, 20 mM Tris, 1 mM DTT, and 1% DMSO or for no dye control reactions, 20 μl of 5 μM protein in 75 mM KCl, 0.75% Glycerol, 20 mM Tris, 1 mM DTT.
(§3) A spinning disk confocal microscope was used to acquire images of the samples. A 60×oil high-NA objective lens was used to capture the condensate droplets. The laser power was set to 20% and the exposure times were adjusted to the fluorescence emission intensity specific for each dye. Exposure times ranged from 1-1000 ms. Appropriate filter settings were used, matching the excitation and emission spectra of the respective dyes. Three images per well were taken. The background signal of protein droplets in the absence of dye was recorded for all applied imaging conditions.
(§4) Fluorescence intensity was measured inside one exemplary target condensate (Intensity inside, I-in) per image and in a region next to the exemplary target condensate (Intensity outside, I-out) by hand using the image analysis software Fiji. An example depicting the regions measured is shown FIG. 2A. Three I-in and three I-out values were measured in total for each dye in each experiment and were averaged. The measured I-in and I-out values for FUS-SNAP condensates on one day of experiments are shown in Table 2 and Table 3, respectively. The measured I-in and I-out values for PGL-3 condensates on one day of experiments are shown in Table 4 and Table 5, respectively. All values were background corrected, based on the background images (no dye controls) taken with the same microscope conditions.
(§5) The ratios of the average intensity measured in the target condensates and outside of the target condensates were calculated by dividing I-in by I-out, although dividing I-out by I-in could also have been used. The I-in:I-out ratios determined from the two different days of experiments were then averaged. The average I-in:I-out ratios for FUS-SNAP condensates are shown in FIG. 3 and the average I-in:I-out ratios for PGL-3 condensates are shown in FIG. 4. The standard deviation between the two experiments is represented by the error bars in FIG. 3 and FIG. 4.

FUS-SNAP condensates = molecular target: T2, FUS-SNAP condensates (Homo sapiens, UniProt P35637); test: Fluorescence imaging of dye partitioning in FUS-SNAP condensates (I-in, I-out); conditions: for Ratio of intensity inside:outside FUS-SNAP Condensates Day 1 / Ratio of intensity inside:outside FUS-SNAP Condensates Day 2 / Ratio of intensity inside:outside FUS-SNAP Condensates Average: I-in:I-out; for Ratio of intensity inside:outside FUS-SNAP Condensates Day 1 / Ratio of intensity inside:outside FUS-SNAP Condensates Day 2 / Ratio of intensity inside:outside FUS-SNAP Condensates Average / Intensity Inside with Dye Average / Intensity Inside with Dye 1 / Intensity Inside with Dye 2 / Intensity Inside with Dye 3 / Intensity Outside with Dye Average / Intensity Outside with Dye 1 / Intensity Outside with Dye 2 / Intensity Outside with Dye 3: 10 μM dye; for Ratio of intensity inside:outside FUS-SNAP Condensates Average: average of two days; for Intensity Inside with Dye Average / Intensity Inside with Dye 1 / Intensity Inside with Dye 2 / Intensity Inside with Dye 3 / Intensity Inside Dye-No Dye: inside FUS-SNAP condensate; for Intensity Inside with Dye Average / Intensity Inside with Dye 1 / Intensity Inside with Dye 2 / Intensity Inside with Dye 3 / Intensity Outside with Dye Average / Intensity Outside with Dye 1 / Intensity Outside with Dye 2 / Intensity Outside with Dye 3: 5 μM protein; for Intensity Inside with Dye Average / Intensity Outside with Dye Average: average of three images; for Intensity Inside with Dye Average / Intensity Inside with Dye 1 / Intensity Inside with Dye 2 / Intensity Inside with Dye 3 / Intensity Inside Dye-No Dye / Intensity Outside with Dye Average / Intensity Outside with Dye 1 / Intensity Outside with Dye 2 / Intensity Outside with Dye 3 / Intensity Outside (Dye-No Dye): one day of experiments; for Intensity Inside with Dye 1 / Intensity Outside with Dye 1: image 1; for Intensity Inside with Dye 2 / Intensity Outside with Dye 2: image 2; for Intensity Inside with Dye 3 / Intensity Outside with Dye 3: image 3; for Intensity Inside Dye-No Dye / Intensity Outside (Dye-No Dye): background corrected; for Intensity Outside with Dye Average / Intensity Outside with Dye 1 / Intensity Outside with Dye 2 / Intensity Outside with Dye 3 / Intensity Outside (Dye-No Dye): outside FUS-SNAP condensate
T2 sequence (P35637 1-526): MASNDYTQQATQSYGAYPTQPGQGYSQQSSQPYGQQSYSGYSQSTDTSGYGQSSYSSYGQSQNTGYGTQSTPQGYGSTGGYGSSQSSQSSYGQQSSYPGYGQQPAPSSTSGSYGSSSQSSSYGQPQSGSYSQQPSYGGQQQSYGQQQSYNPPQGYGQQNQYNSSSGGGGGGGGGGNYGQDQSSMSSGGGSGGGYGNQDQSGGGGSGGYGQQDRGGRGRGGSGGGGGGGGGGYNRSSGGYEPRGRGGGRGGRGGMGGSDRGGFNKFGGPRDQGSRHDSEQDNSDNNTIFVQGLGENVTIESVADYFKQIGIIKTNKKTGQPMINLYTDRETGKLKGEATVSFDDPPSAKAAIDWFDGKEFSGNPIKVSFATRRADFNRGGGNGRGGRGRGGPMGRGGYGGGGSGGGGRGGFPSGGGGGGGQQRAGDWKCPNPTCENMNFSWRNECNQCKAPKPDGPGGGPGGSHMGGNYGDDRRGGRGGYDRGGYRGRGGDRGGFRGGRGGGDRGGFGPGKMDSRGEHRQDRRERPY
Protocol: as §1, §2, §3, §4, §5

[1] = test system: FUS-SNAP condensates versus PGL-3 condensates; test: Condensate preference: ratio of FUS-SNAP I-in:I-out to PGL-3 I-in:I-out; conditions: average FUS-SNAP I-in:I-out divided by average PGL-3 I-in:I-out
Protocol: as §5

Ratio of intensity inside:outside PGL-3 Condensates Day 1 (PGL-3 condensates) | Ratio of intensity inside:outside PGL-3 Condensates Day 2 (PGL-3 condensates) | Ratio of intensity inside:outside PGL-3 Condensates Average (PGL-3 condensates) | Intensity Inside with Dye Average (PGL-3 condensates) | Intensity Inside with Dye 1 (PGL-3 condensates) | Intensity Inside with Dye 2 (PGL-3 condensates) | Intensity Inside with Dye 3 (PGL-3 condensates) | Intensity Inside Dye-No Dye (PGL-3 condensates) | Intensity Outside with Dye Average (PGL-3 condensates) | Intensity Outside with Dye 1 (PGL-3 condensates) | Intensity Outside with Dye 2 (PGL-3 condensates) | Intensity Outside with Dye 3 (PGL-3 condensates) | Intensity Outside (Dye-No Dye) (PGL-3 condensates) | Ratio of intensity inside:outside FUS-SNAP Condensates Day 1 (FUS-SNAP condensates) | Ratio of intensity inside:outside FUS-SNAP Condensates Day 2 (FUS-SNAP condensates) | Ratio of intensity inside:outside FUS-SNAP Condensates Average (FUS-SNAP condensates) | Intensity Inside with Dye Average (FUS-SNAP condensates) | Intensity Inside with Dye 1 (FUS-SNAP condensates) | Intensity Inside with Dye 2 (FUS-SNAP condensates) | Intensity Inside with Dye 3 (FUS-SNAP condensates) | Compound | further results
1.4 | 1.3 | 1.3 | 204.8 | 212.2 | 205.0 | 197.2 | 84.0 | 179.0 | 178.0 | 179.6 | 179.5 | 58.6 | 2.1 | 3.0 | 2.6 | 10851.1 | 10755.9 | 10738.6 | 11058.9 | CC(=O)c1cc2cc3c4c(c2oc1=O)CCCN4CCC3 [Dye 4, Coumarin 334] | Intensity Inside Dye-No Dye (FUS-SNAP condensates): 10353.6; Intensity Outside with Dye Average (FUS-SNAP condensates): 5030.3; Intensity Outside with Dye 1 (FUS-SNAP condensates): 4894.0; Intensity Outside with Dye 2 (FUS-SNAP condensates): 5118.6; Intensity Outside with Dye 3 (FUS-SNAP condensates): 5078.2; Intensity Outside (Dye-No Dye) (FUS-SNAP condensates): 4890.2; Ratio of FUS-SNAP:PGL-3 [1]: 1.9
1.0 | 1.0 | 1.0 | 3538.6 | 3527.5 | 3608.1 | 3480.3 | 3392.1 | 3496.8 | 3491.4 | 3551.4 | 3447.6 | 3391.4 | 1.7 | 1.6 | 1.6 | 5354.9 | 5285.1 | 5631.6 | 5148.0 | 6-[Fluorescein-5(6)-carboxamido]-hexanoic acid [Dye 8] | Intensity Inside Dye-No Dye (FUS-SNAP condensates): 5219.7; Intensity Outside with Dye Average (FUS-SNAP condensates): 3178.8; Intensity Outside with Dye 1 (FUS-SNAP condensates): 3064.0; Intensity Outside with Dye 2 (FUS-SNAP condensates): 3267.0; Intensity Outside with Dye 3 (FUS-SNAP condensates): 3205.5; Intensity Outside (Dye-No Dye) (FUS-SNAP condensates): 3074.8; Ratio of FUS-SNAP:PGL-3 [1]: 1.6
